Publication PMC11235171, “Microproteins encoded by noncanonical ORFs are a major source of tumor-specific antigens in a liver cancer patient meta-cohort” (Science Advances, 2024)

Key:
HHD-DR1 mice [1] = experiment: IFN-γ intracellular cytokine staining (flow cytometry) of CD4+ and CD8+ T cells after peptide immunization; assay type: in vivo, mouse; settings: splenocytes of immunized mice stimulated with peptide 10 μM, 4 hours, GolgiStop/GolgiPlug; cell density plots
Description: (§1) Eight-week-old female HHD-DR1 mice, transgenic for human HLA-A*02:01 molecules ([82]), were used. After study approval by the ethics review committee (reference no. 036-21), mice were bred and housed under pathogen-free conditions in the animal facility of the Center for Applied Medical Research (CIMA). Mice (n = 4 per group) were immunized with peptides (100 nmol per peptide), polyinosinic:polycytidylic acid (50 μg per mouse), and αCD40 (50 μg per mouse). The peptides and adjuvants were administered simultaneously via subcutaneous injection of 100 μl of the mixture resuspended in phosphate-buffered saline. Mice received a boost on day 7 and were euthanized on day 14.
Splenocytes were stimulated with the peptides (10 μM) in the presence of GolgiStop and GolgiPlug (BD Biosciences). Four hours later, cells were surface stained with the following antibodies: CD3ε-Percp-Cy5 (145-2 C11), CD4-FITC (RM4-5), and CD8-BV421 (53-6.7) from BioLegend. Next, cells were fixed and permeabilized using BD Cytofix/Cytoperm Fixation/Permeablization Kit and intracellularly stained with IFNγ-PE (XMG1.2) antibodies. Samples were acquired with a Cytoflex (Beckman Coulter) flow cytometer and were analyzed using FlowJo software (Tree Star).

HHD-DR1 mice [2] = experiment: IFN-γ ELISPOT on splenocytes of peptide-immunized HLA-A*02:01 transgenic mice; assay type: in vivo, mouse; settings: for IFN-γ signal after peptide immunization (immunogenicity), in words: HLA-A*02:01 / HLA-DRB1*01 transgenic mice immunized twice, T cell response measured at day 14 by IFN-γ ELISPOT
Description: as §1
The spleens of immunized mice were processed to measure the number of IFN-γ secreting cells. Splenocytes (8 × 10^5 cells per well) were stimulated for 24 hours with peptides (10 μg/ml). The number of IFN-γ secreting cells was quantified by ImmunoSpot automated counter (Cellular Technology Limited) using the Spot 3 CTL CellCounting software.

| Sequence | IFN-γ producing CD8+ versus CD4+ T cells (ICS), in words (HHD-DR1 mice [1]) | IFN-γ signal after peptide immunization (immunogenicity), in words (HHD-DR1 mice [2]) | number of IFN-γ secreting cells (IFNγSFC) (HHD-DR1 mice [2]; HHD-DR1 mice, n = 4 per group, 100 nmol peptide + poly I:C + αCD40 s.c., boost day 7, spleens day 14, splenocytes stimulated 24 hours with peptide 10 μg/ml, all four replicates) |
| --- | --- | --- | --- |
| GLFHIYHKI | signal for CD8+ cells only | strong IFN-γ signal | – |
| WMSLDWELYV | signal for CD8+ cells only | strong IFN-γ signal | > 1000 IFNγSFC per 8 × 10^5 cells |
